Laboratory results: patent US20080255238A1, “COMPOSITION CONTAINING A THIOUREA DERIVATIVE FOR PREVENTING OR TREATING PRURITIC OR IRRITANT SKIN DISEASES” (AMOREPACIFIC CORPORATION, priority 2004, published 2008)

Key:
Assay type in all cases: in vivo
[1] = test system: ICR mice; test: Itching induced by histamine in ICR mice, oral administration; conditions: for antipruritic effects (in words): histamine; for % Inhibition (mean ± SE): scratching frequency over 30 min, histamine 100 nmol/mouse i.d. 1 h after dosing
From the text: Itching Induced by Histamine in ICR Mice
It is known that the itching response induced by histamine in rodents is generally weaker than that in humans (Kuraishi et al., 1995, Eur. J. Pharmacol. 275, pp 229-233). However, it is known that uniquely, ICR mice sensitively respond to histamine, and this leads to itching response (Maekawa et al., 2000, Jpn. J. Pharmacol. 84, pp 462-466). As is widely known, histamines are representative itching mediators and obviously induce itching in human subjects (Simone et al., 1987, Somatosens. Res. 5, pp 81-92). In this experiment, ICR mice received […]. One day before the experiment, the rostral part of the skin on the back of male ICR mice (28˜32 g, 5˜8 mice/group was clipped. The mice were fasted for 18 hours before experimentation. The drug (compound 1, 0.5 ml/mouse) was dissolved in hydroxypropyl-β-cyclodextrin (HP-β-CD; Mitsubishi Ltd., Japan), and then orally administered to the mice. One hour after the administration, histamine (100 nmol/50 μl/mouse) was dissolved in a physiological saline solution and injected intradermally into the back skin of mice. Immediately after the injection, the mice were placed in a transparent cage, and then the frequency of scratching of the injected site by the hind paws was counted for 30 minutes. The frequency of scratching in test groups administered with the drug was compared to that in a control group administered with histamine alone. The decrease in the frequency of scratching in the test groups was determined as an index of inhibitory effects on itching. The decrease in the frequency of scratching was expressed as a percentage of inhibition to determine inhibitory effects of each compound on itching.

[2] = test system: BALB/C mice; test: Itching induced by compound 48/80 (C48/80) in BALB/C mice, oral administration; conditions: for inhibitory effects on itching (in words): C48/80, BALB/C mice; for % Inhibition (mean ± SE): scratching frequency over 30 min, C48/80 1 h after dosing, BALB/C mice
From the text: Itching Induced by Compound 48/80 (C48/80) in BALB/C Mice
The frequency of scratching induced by an itching-inducing substance varies depending on mouse strain. For example, it was reported that BALB/C mice are less sensitive to histamines and serotonin than ICR mice (Inagaki et al., 2001, Skin Pharmacol. Appl. Skin Physiol., 14, pp 87-96). […] In this experiment, BALB/C mice received C48/80 to induce itching. One day before the experiment, the rostral part of the skin on the back of BALB/C mice (19˜21 g, 6˜12 mice/group) was clipped. After compound 1 was dissolved in HP-β-CD, and compounds 2 and 3 were dissolved in a physiological saline solution containing 10% ethanol and 10% Tween 80, the solutions were orally administered (10 ml/kg) to the mice. One hour after the administration, C48/80 (50 μg/50 μl/mouse) was dissolved in a physiological saline solution and injected intradermally into the back skin of mice. Immediately after the injection, the mice were housed in a transparent cage and then the frequency of scratching of the injected site by the hind paws was counted for 30 minutes. The frequency of scratching in test groups administered with the drugs was compared to that in a control group administered with C48/80 alone. The decrease in the frequency of scratching in the test groups was determined as an index of inhibitory effects on itching. The decrease in the frequency of scratching was expressed as a percentage of inhibition to determine inhibitory effects of each compound on itching.

[3] = test system: ICR mice; test: Itching induced by compound 48/80 (C48/80) in ICR mice, intradermal administration; conditions: for inhibitory effects on itching (in words): C48/80, ICR mice; for % Inhibition (mean ± SE): scratching frequency over 60 min, C48/80 50 μg/mouse i.d., ICR mice
From the text: Itching Induced by Compound 48/80 (C48/80) in ICR Mice
Intradermal Administration
ICR mice suffer from itching upon administration of histamines, and C48/80 (condensation product of N-methyl-p-methoxyphenethylamine with formaldehyde, Sigma, U.S.A.) is a substance that stimulates connective tissues and skin mast cells to release mediators, such as histamines, causing itching. C48/80 causes itching when intradermally administered to humans (Rukwied et al., 2000, Br. J. Pharmacol., 142, pp 1114-1120). In this experiment, ICR mice received C48/80 to induce itching. One day before the experiment, the rostral part of the skin on the back of male ICR mice (28˜32 g, 4˜11 mice/group) was clipped. After the drug (compound 1, 50 μl/mouse) was dissolved in hydroxypropyl-β-cyclodextrin (HP-β-CD; Mitsubishi Ltd., Japan) and C48/80 (50 μg/50 μl/mouse) was dissolved in a physiological saline solution, the solutions were simultaneously injected intradermally into the back skin of mice. Immediately after the injection, the mice were placed in a transparent cage and then the frequency of scratching of the injected site by the hind paws was counted for 60 minutes. The frequency of scratching in test groups administered with the drug was compared to that in a control group administered with C48/80 alone. The decrease in the frequency of scratching in the test groups was determined as an index of inhibitory effects on itching. The decrease in the frequency of scratching was expressed as a percentage of inhibition to determine inhibitory effects of each compound on itching.

[4] = test system: New Zealand white rabbits; test: Inhibition of skin irritation induced by retinoic acid in New Zealand white rabbits, topical administration
From the text: Inhibition of Skin Irritation Induced by Retinoic Acid in New Zealand White Rabbits
However, it is known that retinoic acid causes irritation in its initial stage of use and further causes side effects, such as skin erythema and edema, when topically applied to the skin (Varani et al., 2003, Arch. Dermatol. Res., 295, pp 255-262). A number of attempts to reduce the skin irritation induced by retinoic acid have been made in many directions (Kim et al., 2003, Toxicol. Letters., 146, pp 65-73). […] In this experiment, New Zealand white rabbits received retinoic acid to cause skin irritation. One day before the experiment, hairs around the back of four male New Zealand white rabbits (2.0˜2.5 kg) were shaved. Four application sites, which are symmetrical by two (i.e. right upper-site-left upper site and right lower site-left lower site), were marked at the shaved back of each rabbit. 100 μl of 0.025% retinoic acid (Sigma, U.S.A.) was topically applied to all four-application sites. 30 minutes after the application, the two sites marked at the right were treated with the drug (compound 1, 1%/100 μl/each application site), and the two sites marked at the left were treated with a solvent (100 μl/each application site) alone. At this time, retinoic acid and the drug were dissolved in a mixed solution of PEG 400 and ethanol (7:3), and then topically applied twice daily for four consecutive days. On the fifth day, the application sites were visually observed to evaluate the degree of skin irritation. The degree of skin irritation was expressed in a cumulative irritation index. […] The cumulative irritation index was judged based on occurrence of erythema, and scored in accordance with the following criteria: Occurrence of no erythema (0), occurrence of slightly visible erythema (1), occurrence of distinct erythema (2), occurrence of distinct scarlet erythema (3), and occurrence of distinct crimson erythema and scaling (4).

[5] = test system: ICR mice; test: Inhibition of skin irritation induced by tacrolimus in ICR mice; conditions: intradermal; for % Inhibition (mean ± SE): scratching frequency over 30 min, tacrolimus 50 μg/mouse i.d.
From the text: Inhibition of Skin Irritation Induced by Tacrolimus in ICR Mice
Subcutaneous Administration
Tacrolimus is an immunosuppressant widely used in liver and renal transplantation (Lawrence, 1998, Dermatol. Ther., 5, pp 74-84). Tacrolimus is currently used in the form of ointment for treating skin diseases, such as atopic dermatitis (Wollenberg et al., 2001, J. Allergy. Clin. Immunol., 107, pp 519-525), psoriasis (Nasr, 2000, Clin. Exp. Dermatol., 25, pp 250-254), allergic contact dermatitis (Lauerma et al., 1992, Lancet, 340, p 556), and the like. However, it was reported that tacrolimus enhances irritation in human models with irritant contact dermatitis (Fuchs et al., 2002, Contact dermatitis, 46, pp 290-294). It was reported that tacrolimus causes side effects, such as skin irritation, itching and erythema, in its initial stage of use (Gupta et al., 2002, JEADV, 16, pp 100-114; Gupta and Chow, 2003, JEADV, 17, pp 493-503). No experimental model of skin irritation by tacrolimus in animal experiments is currently known. Accordingly, tacrolimus as a skin-irritant substance was directly injected to ICR mice by intradermal injection, and then scratching behavior of the mice was observed. One day before the experiment, the rostral part of the skin on the back male ICR mice (30˜33 g, 10 mice/group) was clipped. After the drug (compound 1, 50 μl/mouse) was dissolved in 28% hydroxypropyl-β-cyclodextrin (HP-β-CD; Mitsubishi Ltd., Japan) and tacrolimus (50 μg/50 μl/mouse, Cipla, India) was dissolved in a physiological saline solution containing 5% ethanol and 5% Tween 80, the solutions were simultaneously injected intradermally into the back skin of mice. Immediately after the injection, the mice were placed in a transparent cage and then the frequency of scratching of the injected site by the hind paws was counted for 30 minutes. The frequency of scratching in test groups administered with the drug was compared to that in a group administered with tacrolimus alone. […] The decrease in the frequency of scratching was expressed as a percentage of inhibition to determine inhibitory effects of each compound on skin irritation.

| Compound | antipruritic effects (in words) [1] | % Inhibition (mean ± SE) ([1]; dose 10 mg/mouse) [%] | inhibitory effects on itching (in words) [2] | % Inhibition (mean ± SE) ([2]; dose 10 mg) [%] | % Inhibition (mean ± SE) ([2]; dose 3 mg) [%] | % Inhibition (mean ± SE) ([2]; dose 30 mg) [%] | inhibitory effects on itching (in words) [3] | % Inhibition (mean ± SE) ([3]; dose 0.3 mg/mouse) [%] | further results |
| --- | --- | --- | --- | --- | --- | --- | --- | --- | --- |
| CN1CCCC(n2nc(Cc3ccc(Cl)cc3)c3ccccc3c2=O)CC1 (centres unmarked) [Azelastine chloride, reference compound] | potent antipruritic effects in a dose-dependent manner | 91.7 ± 6.8 | – | – | – | – | – | – | % Inhibition (mean ± SE) ([1]; dose 1 mg/mouse): 63.7 ± 26.6% |
| CN1CCC(=C2c3ccccc3CC(=O)c3sccc32)CC1 [Ketotifen, ketotifen, reference compound] | – | – | no inhibitory effects on itching | −24.91 ± 15.09 | – | – | – | – | – |
| Cc1cc(CNC(=S)NCc2ccc(C(C)(C)C)cc2)ccc1NS(C)(=O)=O [Compound 3, 1-(4-t-butylbenzyl)-3-(3-methyl-4-methanesulfonylaminobenzyl)thiourea] | – | – | – | 11.78 ± 15.26 | 8.21 ± 5.82 | 38.76 ± 7.77 | – | – | – |
| CN(C)CCC(c1ccc(Cl)cc1)c1ccccn1 (centres unmarked) [chlorpheniramine, reference compound] | – | – | no inhibitory effects on itching | – | −22.90 ± 28.21 | – | no inhibitory effects on itching | −77.61 ± 70.54 | – |
| CC(C)(C)c1ccc(CNC(=S)NCc2ccc(NS(C)(=O)=O)c(F)c2)cc1 [Compound 1, 1-(4-t-butylbenzyl)-3-(3-fluoro-4-methanesulfonylaminobenzyl)thiourea] | potent anti-pruritic effects in a dose-dependent manner | 39.8 ± 18.1 | – | 42.24 ± 24.48 | −22.90 ± 13.19 | 42.97 ± 7.13 | potent antipruritic effects in a dose-dependent manner | 44.11 ± 10.36 | % Inhibition (mean ± SE) ([3]; dose 0.03 mg/mouse): −6.51 ± 17.39%; % Inhibition (mean ± SE) ([3]; dose 0.1 mg/mouse): 36.96 ± 13.44%; % Inhibition (mean ± SE) ([3]; dose 1 mg/mouse): 69.03 ± 7.76%; % Inhibition (mean ± SE) ([2]; dose 100 mg): 54.11 ± 18.50%; % Inhibition (mean) ([4]; decrease in cumulative irritation index vs retinoic acid + solvent, compound 1%, 100 μl/application site, topical, rabbits): 40%; Cumulative irritation index (mean ± SE) ([4]; erythema score 0-4 on fifth day, retinoic acid 0.025% + compound 1%, 100 μl/application site, topical twice daily for four days, rabbits): 1.88 ± 0.45; inhibitory effects on skin irritation (in words) ([4]; retinoic acid, New Zealand white rabbits, topical): inhibitory effects on skin irritation; % Inhibition (mean ± SE) ([1]; dose 30 mg/mouse): 46.7 ± 24.0%; % Inhibition (mean ± SE) ([1]; dose 100 mg/mouse): 75.8 ± 26.9%; % Inhibition (mean ± SE) ([5]; dose 0.1 mg/mouse): 33.74 ± 37.73%; % Inhibition (mean ± SE) ([5]; dose 0.3 mg/mouse): 52.03 ± 24.14%; % Inhibition (mean ± SE) ([5]; dose 1 mg/mouse): 106.91 ± 30.13%; inhibitory effects on skin irritation (in words) ([5]; tacrolimus): inhibitory effects on skin irritation in a dose-dependent manner |
| CC(C)(C)c1ccc(CNC(=S)NCc2ccc(NS(C)(=O)=O)c(Cl)c2)cc1 [Compound 2, 1-(4-t-butylbenzyl)-3-(3-chloro-4-methanesulfonylaminobenzyl)thiourea] | – | – | – | 7.42 ± 10.43 | 0.89 ± 7.23 | 44.53 ± 11.07 | – | – | – |
